In patent publication US9340575B2, “Agonists and antagonists of the urotensinergic system” (INSTITUT NATIONAL DE LA RECHERCHE SCIENTIFIQUE, priority 2011, dated 2016):
Values joined by “and” are separate entries in the source; they are usually repeats but may differ in a detail not shown here. Equal values may be shown once. “Also recorded” adds a separate entry of the source.

Legend:
[1] = system: rat isolated aorta; assay: Reversal of hUII-induced contractile tone in rat isolated aorta; format: cell-based; conditions: tone established with 4 nM hUII (EC80)
Procedure: (§1) Male rats (Sprague-Dawley, 250-300 g) were killed by CO2 asphyxiation. The thoracic aorta was then cleared of surrounding tissues and excised from aortic arch to the diaphragm. From each vessel, conjunctive tissues were removed and the clean vessel was cut into 4 mm rings. The endothelium was removed by gently rubbing the vessel's intimal surface. All preparations were placed in 5 ml organ baths filled with oxygenated normal Krebs-Henselheit solution. Contractile responses to 40 mM KCl were used as control at the beginning and at the end of each experiment. Agonistic activity was measured by increasing the concentration of the peptide in the organ chamber (3×10^−11-3×10^−6 M). For antagonist behaviour, thoracic aortic rings were first exposed to URP derivative over a period of 15 min, and then cumulative concentration-response curves to hUII, URP or ET-1 (10^−10-3×10^−6 M) were constructed. The amplitude of the contraction induced by each concentration of peptide was expressed as a percentage of the KCl-induced contraction. Finally, the ability of the antagonist to reverse the hUII-induced contraction was also evaluated. Vessels were pre-contracted with 4 nM hUII (pre-determined EC80) and after the maximum contraction was attained, contractile tone was reversed by adding increasing log unit concentrations of URP derivative.

[2] = system: rat thoracic aorta rings; assay: Antagonism of UII- or URP-induced contraction of rat aortic ring; format: cell-based
Procedure: as §1, with “derivative. […] Binding and functional experiments were performed at least in triplicate and data, expressed as mean±S.E.M, were analyzed using the Prism software (Graph Pad Software, San Diego, Calif.). In all experiments, n represents the total number of animals studied or individual assays performed. The EC50, pEC50, pIC50 values as well as the Emax value were determined from the concentration-response curves using a sigmoidal dose-response fit with variable slope. Non-competitive antagonist affinities (pKb) were determined using the method of Gaddum where equiactive concentrations of agonist, in the absence or presence of URP derivative, were compared in a linear regression. The resulting slope was used to calculate the equilibrium constant Kb using the following equation: Kb=[B]/(slope−1); where [B] is the antagonist concentration. The slope is calculated from the double reciprocal plot of equiactive concentrations of agonist in the presence and absence of antagonist.” for “derivative.”

[3] = system: rat thoracic aorta rings; assay: Effect on ET-1-induced contraction of rat aortic ring; format: cell-based; conditions: [Bip^4]URP 10^−6M
Procedure: as §1

[4] = system: anaesthetized rats; assay: Hemodynamic assessment (arterial blood pressure) in anaesthetized rats; format: in vivo, rat; conditions: for Intrinsic effect on blood pressure: anaesthetized rats
Procedure: Male Sprague-Dawley rats, weighing 350-400 g, were anaesthetized by isoflurane inhalation delivered in 100% oxygen (1 l/min) from an Ohmeda Tec 4 anaesthetic vaporizer (Somatechnology, Inc., Bloomfield, Conn., USA). Anaesthesia was maintained by mask inhalation of isoflurane vaporized at concentrations of up to 3% in the induction phase, at 1.5% during acute surgical procedures and at 0.8-1.0% during experimental observations. […]. […] A period of stabilisation of 30 min was observed and the following experimental protocols were then performed and arterial blood pressure was evaluated. During isoflurane inhalation, no breathing complications or changes in blood pressure were observed. […].
In a preliminary study, individual rats received a single i.v. injection of hUII ranging from 1 to 30 nmol/kg. A dose-response curve, reflecting the effect of hUII on the change in blood pressure, was then determined.
In this set of experiments, five groups of rats were used. […] […]. Hemodynamic changes were continuously captured by the pressure probe over a period of 1 h. The maximum rise and the maximum drop in blood pressure was determined and analyzed using the PowerLab software (ADInstruments, Colorado Springs, Colo., USA).
In the control group, the rats received two doses of hUII (10 nmol/kg) with a 30 min interval between the first and second injection.

[5] = 1000 nmol/kg bolus, 30 min before hUII 10 nmol/kg

pIC50 for reversal of contractile tone [1]: 7.72±0.15
SMILES: CC(C)[C@H](NC(=O)[C@@H]1CSSC[C@H](NC(=O)[C@H](C)N)C(=O)N[C@@H](Cc2ccccc2)C(=O)N[C@@H](Cc2ccc(-c3ccccc3)cc2)C(=O)N[C@@H](CCCCN)C(=O)N[C@@H](Cc2ccc(O)cc2)C(=O)N1)C(=O)O [[Bip^4]URP, H-Ala-Cys-Phe-Bip-Lys-Tyr-Cys-Val-OH]
Suppression of contractile tone [1]: 92%
Effect on URP-induced contraction (in words) [2]: but not URP
Effect on hUII-induced contraction (in words) [2]: suppressed the maximum contractile response to hUII in a concentration-dependent manner
pKb (non-competitive antagonism of hUII) ([2]; 1 μM [Bip^4]URP, method of Gaddum): 7.15
Slope of double reciprocal plot of equiactive hUII concentrations (method of Gaddum) ([2]; absence and presence of 1 μM [Bip^4]URP): 15.00±0.62 and 15.0±0.6
Effect on ET-1-induced contraction (in words) [3]: not able to alter the concentration-response curves; also recorded: did not inhibit or potentiate
Effect on hUII hemodynamic profile ([4]; 0.1 μmol/kg): no effect
Intrinsic effect on blood pressure ([4]; 100 nmol/kg (0.1 μmol/kg) i.v.): No effect
Intrinsic effect on blood pressure ([4]; 100 nmol/kg (0.1 μmol/kg) i.v., listed as urocontrin): no detectable effect
Intrinsic effect on blood pressure ([4]; 1000 nmol/kg (1 μmol/kg) i.v.): hypotensive effect comparable with that of hUII
Intrinsic effect on blood pressure ([4]; 1000 nmol/kg (1 μmol/kg) i.v., listed as urocontrin): hypotension comparable with that of hUII
Effect on hUII hypotensive action [4, 5]: significantly reduced
Effect on hUII pressor effect [4, 5]: keeping intact
Effect on hUII pressor effect ([4]; 1000 nmol/kg bolus, 30 min before hUII 10 nmol/kg, listed as urocontrin): preserving
Effect on biphasic response induced by URP ([4]; 1000 nmol/kg, URP 10 nmol/kg): no effect
Response to a second hUII injection after pre-treatment ([4]; [Bip^4]URP 1000 nmol/kg 30 min before two hUII doses (10 nmol/kg, 30 min interval)): complete absence of a response
